Conditions: Coaxial cylinder method

CCC [propane]
thermal conductivity [W/m/K]
Conditions	Gas	Liquid
364.65 K, 4080 kPa	–	0.06377
364.65 K, 4100 kPa	–	0.06381
364.65 K, 4120 kPa	–	0.06385
364.65 K, 4140 kPa	–	0.06391
364.65 K, 4160 kPa	–	0.06398
364.65 K, 4180 kPa	–	0.06404
364.65 K, 4200 kPa	–	0.06412
364.65 K, 4220 kPa	–	0.06418
364.65 K, 4240 kPa	–	0.06424
364.65 K, 4260 kPa	–	0.06432
364.65 K, 4280 kPa	–	0.06439
364.65 K, 4300 kPa	–	0.06445
364.65 K, 4349 kPa	–	0.06465
364.65 K, 4364 kPa	–	0.06469
364.65 K, 4372 kPa	–	0.06473
364.65 K, 4380 kPa	–	0.06475
364.65 K, 4388 kPa	–	0.06475
365.72 K, 3306 kPa	0.03402	0.03402
365.72 K, 3882 kPa	0.04279	–
365.72 K, 3883 kPa	0.04289	–
365.72 K, 3884 kPa	0.04575	–
365.72 K, 3885 kPa	0.04607	–
365.72 K, 3890 kPa	0.05157	–
365.72 K, 3891 kPa	0.05307	–
365.72 K, 3892 kPa	0.05526	–
365.72 K, 3893 kPa	0.0573	–
365.72 K, 3894 kPa	0.05933	–
365.72 K, 3895 kPa	0.06131	–
365.72 K, 3896 kPa	0.06342	–
365.72 K, 3897 kPa	0.06568	–
365.72 K, 3898 kPa	0.06813	–
365.72 K, 3899 kPa	0.07049	–
365.72 K, 3900 kPa	0.07276	–
365.72 K, 3901 kPa	0.07497	–
365.72 K, 3902 kPa	0.07801	–
365.72 K, 3903 kPa	0.0811	–
365.72 K, 3904 kPa	0.08423	–
365.72 K, 3905 kPa	0.08726	–
365.72 K, 3906 kPa	0.09038	–
365.72 K, 3907 kPa	0.09365	–
365.72 K, 3908 kPa	0.09697	–
365.72 K, 3909 kPa	0.1001	–
365.72 K, 3910 kPa	0.1033	–
365.72 K, 3911 kPa	0.1068	–
365.72 K, 3912 kPa	0.1099	–
365.72 K, 3913 kPa	0.1132	–
365.72 K, 3914 kPa	0.1164	–
365.72 K, 3915 kPa	0.1201	–
365.72 K, 3916 kPa	0.1234	–
365.72 K, 3917 kPa	0.1273	–
365.72 K, 3918 kPa	0.1307	–
365.72 K, 3919 kPa	0.1341	–
365.72 K, 3920 kPa	0.1379	–
365.72 K, 3921 kPa	0.1413	–
365.72 K, 3922 kPa	0.1454	–
365.72 K, 3923 kPa	0.149	–
365.72 K, 3924 kPa	0.1527	–
365.72 K, 3925 kPa	0.1565	–
365.72 K, 3926 kPa	0.1605	–
365.72 K, 3927 kPa	0.1644	–
365.72 K, 3928 kPa	0.1684	–
365.72 K, 3929 kPa	0.1724	–
365.72 K, 3930 kPa	0.1763	–
365.72 K, 3931 kPa	0.1804	–
365.72 K, 3932 kPa	0.1846	–
365.72 K, 3933 kPa	0.1886	–
365.72 K, 3934 kPa	0.1932	–
365.72 K, 3935 kPa	0.1972	–
365.72 K, 3936 kPa	0.2015	–
365.72 K, 3937 kPa	0.2059	–
365.72 K, 3938 kPa	0.2104	–
365.72 K, 3939 kPa	0.2148	–
365.72 K, 3940 kPa	0.2193	–
365.72 K, 3941 kPa	0.2241	–
365.72 K, 3942 kPa	0.229	–
365.72 K, 3943 kPa	0.2336	–
365.72 K, 3944 kPa	0.2401	–
365.72 K, 3945 kPa	–	0.2612
365.72 K, 3946 kPa	–	0.2502
365.72 K, 3947 kPa	–	0.2373
365.72 K, 3948 kPa	–	0.224
365.72 K, 3949 kPa	–	0.2125
365.72 K, 3950 kPa	–	0.2005
365.72 K, 3951 kPa	–	0.1903
365.72 K, 3952 kPa	–	0.1805
365.72 K, 3953 kPa	–	0.1711
365.72 K, 3954 kPa	–	0.1622
365.72 K, 3955 kPa	–	0.1544
365.72 K, 3956 kPa	–	0.1467
365.72 K, 3957 kPa	–	0.1394
365.72 K, 3958 kPa	–	0.1335
365.72 K, 3959 kPa	–	0.1273
365.72 K, 3960 kPa	–	0.1217
365.72 K, 3961 kPa	–	0.1164
365.72 K, 3962 kPa	–	0.1139
365.72 K, 3963 kPa	–	0.1116
365.72 K, 3964 kPa	–	0.1094
365.72 K, 3965 kPa	–	0.1072
365.72 K, 3966 kPa	–	0.1052
365.72 K, 3967 kPa	–	0.1032
365.72 K, 3968 kPa	–	0.1013
365.72 K, 3969 kPa	–	0.09939
365.72 K, 3970 kPa	–	0.09778
365.72 K, 3971 kPa	–	0.09605
365.72 K, 3972 kPa	–	0.09456
365.72 K, 3973 kPa	–	0.09289
365.72 K, 3974 kPa	–	0.09145
365.72 K, 3975 kPa	–	0.09005
365.72 K, 3976 kPa	–	0.08869
365.72 K, 3977 kPa	–	0.08737

Reference: the NIST ThermoML archive (doi:10.1016/j.fluid.2017.06.019)
